Columns and labels:
Sprague–Dawley (SD) rats [1] = assay: Starch loading test, postprandial blood glucose in SD rats; format: in vivo, rat; conditions: extracts 0.5 g/kg
From the text: (§1) All animal procedures were approved by the Institutional Animal Care and Use Com-[…]) of […] University (Approval number: HNU2016-0015-1). This study is reported in accordance with ARRIVE guidelines (https://arriveguidelines.org). Four-week-old male Sprague-Dawley (SD) rats were purchased from Joongang Experimental Animal Co. (Seoul, Korea) and fed with a standard diet (Samyang Diet Co., Seoul, Korea) and with water ad libitum for one week. Effect on hyperglycemia-induced by carbohydrate loads in Sprague-Dawley (SD) rats was determined by the inhibitory action of coffee extracts on postprandial hyperglycemia as described in [30]. […] In the case of the administration group, administration samples were prepared by mixing starch or sugar with coffee extracts by dose in advance were orally administrated using a zonde injection needle. […] The glucose level in blood was determined by the glucose oxidase method and compared with that of the control group. The parameters for blood glucose levels will be calculated Maximum observed peak blood glucose level (Cmax) and the time at which it is observed (Tmax) were determined based on the observed data. […] In addition, statistical significances in the animal study were determined by Student's t-test (*p < 0.05; **p < 0.01; and *** p < 0.001). […]

[2] = biological target: rat intestinal α-glucosidase; assay: Rat small intestinal α-glucosidase inhibition assay (pNPG substrate); format: biochemical
Method: In order to investigate the inhibitory effect of coffee extracts on the absorption of glucose, rat intestinal α-glucosidase inhibitory activity was determined using the substrate p-nitrophenyl-α-D-glucopyranoside (pNPG) according to [28] with a slight modification. A total of 0.6 g of rat-intestinal acetone powder was suspended in 9 mL of 0.1 M sodium phosphate buffer 0.9%, and the suspension was sonicated for 12 times 30 s at 4 °C. It was then centrifuged (13,000 × g, 30 min, 4 °C), and the resulting supernatant was used for the assay. […] Absorbance was measured at 405 nm and compared to a control that had 50 μL of buffer solution in place of the extract by Micro-Plate Reader (SpectraMAx® i3, Molecular devices LLC., Wals, Austria). The rat α-glucosidase inhibitory activity was expressed as percent inhibition and was calculated as follows: Inhibition%=ΔAControl405-ΔAExtract405/ΔAControl405×100
All data are presented as mean ± S.D. Statistical analyses were carried out using the statistical packages SPSS 11 (Statistical Package for Social Science 11, SPSS Inc., Chicago, IL, USA) program and the significance of each group was verified with the analyses of one-way ANOVA followed by Duncan’s test of p < 0.05. In addition, statistical significances in the animal study were determined by Student’s t-test (*p < 0.05; **p < 0.01; and *** p < 0.001). […]

Sprague–Dawley (SD) rats [3] = assay: Sucrose loading test, postprandial blood glucose in SD rats; format: in vivo, rat; conditions: sucrose 2.0 g/kg oral, extracts 0.5 g/kg, Acarbose 5.0 mg/kg, mean ± S.D., n = 5
From the text: as §1

IC50 rat intestinal α-glucosidase ([2]; Ethanol extract row): < 500 µg/mL | IC50 rat intestinal α-glucosidase ([2]; Water extract row): < 500 µg/mL
Compound: C[C@H]1O[C@H](O[C@H]2[C@H](O)[C@@H](O)[C@@H](O[C@H]3[C@H](O)[C@@H](O)C(O)O[C@@H]3CO)O[C@@H]2CO)[C@H](O)[C@@H](O)[C@@H]1N[C@H]1C=C(CO)[C@@H](O)[C@H](O)[C@H]1O (some centres unmarked) [Acarbose, acarbose]
AUCt (blood glucose-time curve) (Sprague–Dawley (SD) rats [1]; starch 2.0 g/kg oral, Acarbose 5.0 mg/kg, mean ± S.D., n = 5): 389.0 ± 36.8^*** hr·mg/dL | blood glucose level after starch loading compared to control (Sprague–Dawley (SD) rats [1]; starch 2.0 g/kg, Acarbose 5 mg/kg oral): significantly higher blood lowering than all the coffee types and the controls | AUCt (blood glucose-time curve) (Sprague–Dawley (SD) rats [3]): 376.2 ± 17.2^*** hr·mg/dL

— publication PMC9508756, “Selected coffee (Coffea arabica L.) extracts inhibit intestinal α-glucosidases activities in-vitro and postprandial hyperglycemia in SD Rats” (BMC Complementary Medicine and Therapies, 2022)
